In patent US20240368109A1, “ALLOSTERIC MODULATORS OF NICOTINIC ACETYLCHOLINE RECEPTORS” (MERCK SHARP & DOHME LLC, priority 2021, published 2024):

Biological target: human α7 nAChR (Homo sapiens (Human), UniProt P36544)
Assay: Automated patch-clamp electrophysiology functional assay (Assay A)
Type: cell-based
Settings: IonFlux HT whole-cell population patch, HEK cells expressing human α7/RIC-3, 40 μM acetylcholine
In short: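 Whole-cell population patch clamp on HEK cells stably co-expressing human α7 and RIC-3, held at −60 mV, room temperature. Compounds tested at three ascending concentrations per recording with or without 40 μM acetylcholine; currents normalized to the 40 μM acetylcholine-evoked reference response to give agonist and potentiation EC50.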

Sequence of human α7 nAChR (P36544 23-502): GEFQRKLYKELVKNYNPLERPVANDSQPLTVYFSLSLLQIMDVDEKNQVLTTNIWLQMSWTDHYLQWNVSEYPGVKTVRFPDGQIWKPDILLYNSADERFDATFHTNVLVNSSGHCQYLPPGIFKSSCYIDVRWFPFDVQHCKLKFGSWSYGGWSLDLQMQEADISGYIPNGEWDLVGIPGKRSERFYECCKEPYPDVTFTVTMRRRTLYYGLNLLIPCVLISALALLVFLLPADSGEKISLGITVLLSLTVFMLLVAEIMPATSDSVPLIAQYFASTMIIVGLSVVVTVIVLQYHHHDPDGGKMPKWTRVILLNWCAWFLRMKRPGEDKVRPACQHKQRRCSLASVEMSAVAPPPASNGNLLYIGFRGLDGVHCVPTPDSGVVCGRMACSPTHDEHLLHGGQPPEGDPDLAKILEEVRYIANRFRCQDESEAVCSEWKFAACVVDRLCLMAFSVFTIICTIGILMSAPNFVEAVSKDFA

Row | EC50 (electrophysiology EC50 values) [nM] | EC50 (potency class) [nM] | Structure (SMILES)
1 | 1000 | 500 to 5000 | COc1ccc(-c2noc(CNC(=O)C3C4Oc5ccc(F)cc5C43)n2)cn1 (stereo not drawn) [Example C51, exo-5-fluoro-N-{[3-(6-methoxypyridin-3-yl)-1,2,4-oxadiazol-5-yl]methyl}-1a,6b-dihydro-1H-cyclopropa[b][1]benzofuran-1-carboxamide]
2 |  | 500 to 5000 | O=C(NCc1cc(-c2ccc(Cl)cc2)no1)C1C2Oc3ccc(F)cc3C21 (stereo not drawn) [Example C52, exo-N-{[3-(4-chlorophenyl)-1,2-oxazol-5-yl]methyl}-5-fluoro-1a,6b-dihydro-1H-cyclopropa[b][1]benzofuran-1-carboxamide]
3 | 1500 | 500 to 5000 | O=C(NCc1nc(-c2ccccc2)no1)C1C2Oc3ccc(F)cc3C21 (stereo not drawn) [Example C53, exo-5-fluoro-N-[(3-phenyl-1,2,4-oxadiazol-5-yl)methyl]-1a,6b-dihydro-1H-cyclopropa[b][1]benzofuran-1-carboxamide]
